Values quoted from earlier work as cited in EP4406531A1, “DOSAGE FORM FOR INTRA-ARTICULAR INJECTION […] AN […] IN THE TREATMENT OF CRYSTAL-AND NON-CRYSTAL […] IN[…]” (PK MED, priority 2023, dated 2024).

Details: literature (Niel et al. 2006)

## COc1cc2c(c(OC)c1OC)-c1ccc(OC)c(=O)cc1[C@@H](NC(C)=O)CC2 [colchicine, N-[(7S)-1,2,3,10-tetramethoxy-9-oxo-6,7-dihydro-5H-benzo[a]heptalen-7-yl]acetamide]
  lethal dose: 0.8 mg/kg
  toxicity limit: 0.1 mg/kg
